Measured values from patent US12152012B2, “BRAG2 inhibitors and applications thereof” (CENTRE NATIONAL DE LA RECHERCHE SCIENTIFIQUE, priority 2018, dated 2024).
Entries after “also recorded” stand apart in the source; their conditions may differ.

Experiments:
BRAG2 (BRAG2^Sec7PH) = molecular target: T1, BRAG2 (BRAG2^Sec7PH) (Homo sapiens, UniProt Q6DN90); assay: Nucleotide exchange kinetics on liposomes, activation of myristoylated Arf1; format: biochemical
T1 construct: human BRAG2^Sec7 (390-594) and BRAG2^Sec7PH (390-811); made in house
Protocol: The effect of Bragsin1 on the GEF efficiency of representative human ArfGEFs was evaluated by fluorescence kinetics using highly purified recombinant Arf GTPases and ArfGEFs. In a first series of assays, the Sec7 domains of BIG1, a Golgi ArfGEF, and of ARNO, EFA6a and BRAG2, which function at the plasma membrane, were used. When tested in solution, Bragsin1 had no effect on the activation of Arf1 by any of these Sec7 domains (FIGS. 2a and 14). Separately, we reconstituted the activation of myristoylated Arf1 by the same ArfGEFs on liposomes using ArfGEF constructs that contain a membrane-binding domain (DCB-HUS domain for BIG1, PH domains for the other GEFs). […] BRAG2 activates several Arf isoforms, including the plasma membrane-located Arf6 isoform. […] Bragsin1 and Bragsin2 have the same IC50 towards BRAG2 ([…]) according to dose-response analysis, confirming that Bragsin1 and Bragsin2 can be used interchangeably (FIG. 2d). The specific inhibition of BRAG2 by Bragsin in vitro predicts that BRAG2 silencing by siRNA should yield the same phenotype as treatment by the small molecule. Silencing of BRAG2 induced the redistribution of TGN46 into tubular or punctate structures, which phenocopied the effects induced by Bragsin (FIGS. 2e, 17 and 18). […] Silencing of ARNO, which is located at the plasma membrane, had no effect on TGN46 distribution. Overexpression of BRAG2-mCherry rescued the dispersion of the TGN46 structure induced by Bragsin, which is consistent with the silencing experiments (FIG. 2f). Bragsin is a specific inhibitor of the ArfGEF BRAG2 in vitro and in cells according to these experiments. These oexperiments identify a mechanism of inhibition that requires the membrane to manifests itself.
Bovine Δ17Arf1 and human Δ13Arf6, full-length myristoylated Arf1 and Arf6, human BRAG2^Sec7 (390-594) and BRAG2^Sec7PH (390-811), human EFA6^Sec7 (527-727) and EFA6^Sec7PHCt (527-1024), ARNO^Sec7 (50-256), BIG1^Sec7 (691-889), BIG1^DcbHusSec7 (2-888) and ARNO^Sec7PH (50-399) were expressed and purified as in (Benabdi, S. et al. Family-wide Analysis of the Inhibition of Arf Guanine Nucleotide Exchange Factors with Small Molecules: Evidence of Unique Inhibitory Profiles. Biochemistry 56, 5125-5133 (2017)) and references therein. BRAG2^Sec7PH mutants were purified as the wild type protein. Purification of human full-length Rac1 carrying a 6xHis tag in C-terminus and human TRIO^DH1PH1 (1232-1550) was described in (Peurois, F. et al. Characterization of the activation of small GTPases by their GEFs on membranes using artificial membrane tethering. Biochem J 474, 1259-1272 (2017)).
Lipids (of natural origin) were from Avanti Polar Lipids, except NBD-PE from Sigma. Liposomes were prepared as described in (Aizel, K. et al. Integrated conformational and lipid-sensing regulation of endosomal ArfGEF BRAG2. PLOS Biol 11, e1001652 (2013)) and extruded at 0.2 μm. For the Arf GEF specificity studies, liposomes contained 48% phosphatidylcholine (PC), 20% phosphatidylethanolamine (PE), 30% phosphatidylserine (PS) and 2% phosphatidylinositol-4,5-bisphosphate (PIP2). For Rac activation assay, liposomes contained 43% PC, 20% PE, 10% PS, 20% cholesterol, 2% PIP2, 5% NiNTA lipids and 0.2% NBD-PE. To exclude aggregation or disruption of the liposomes, their size distribution was controlled before and after experiments by dynamic light scattering as described in (Benabdi, S. et al. Biochemistry 56, 5125-5133 (2017)). Dose-response and flotation assays were carried out with liposomes containing 37.9% PC, 20% PE, 20% PS, 2% PIP2, 20% cholesterol and 0.1% NBD-PE. Flotation assays were carried out as in 18.
Nucleotide exchange kinetics were monitored by tryptophan fluorescence with excitation/emission wavelengths of 292/340 nm using a Cary Eclipse fluorimeter (Varian) at 37° C. and under continuous stirring as described in ^50,51. […]

[1] = Stability in aqueous solution / PBS (mass spectroscopy); format: physicochemical; conditions: for Chemical stability in aqueous solution: after a few days in aqueous solution; for Stability in PBS by mass spectroscopy: dissolved in PBS, within 72 hours

T1 sequence (Q6DN90 512-933): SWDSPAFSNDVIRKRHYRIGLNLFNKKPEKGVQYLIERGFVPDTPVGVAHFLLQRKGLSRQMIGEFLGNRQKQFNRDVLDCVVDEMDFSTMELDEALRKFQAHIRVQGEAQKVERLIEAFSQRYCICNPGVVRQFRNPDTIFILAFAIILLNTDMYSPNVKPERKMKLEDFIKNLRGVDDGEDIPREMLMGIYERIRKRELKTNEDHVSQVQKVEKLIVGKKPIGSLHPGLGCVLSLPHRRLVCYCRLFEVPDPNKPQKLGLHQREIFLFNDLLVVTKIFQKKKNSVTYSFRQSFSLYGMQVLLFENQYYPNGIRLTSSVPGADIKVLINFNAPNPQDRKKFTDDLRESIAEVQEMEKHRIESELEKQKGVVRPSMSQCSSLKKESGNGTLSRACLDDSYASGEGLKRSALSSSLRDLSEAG

Row | Compound | Inhibition of BRAG2 in the presence of liposomes (BRAG2 (BRAG2^Sec7PH); 50 μM compound vs DMSO, myristoylated Arf1, liposomes) | Activity towards BRAG2 after storage (BRAG2 (BRAG2^Sec7PH); stock solution in DMSO kept for several months) | Chemical stability in aqueous solution [1] | Stability in PBS by mass spectroscopy [1] | Inhibition of BRAG2 on liposomes that contain PIP2 compared to PS as sole negatively charged lipid (BRAG2 (BRAG2^Sec7PH); lipid composition of liposomes varied)
1 | Cc1ccc2oc(C(F)(F)F)cc(=O)c2c1[N+](=O)[O-] [Bragsin1, 6-methyl-5-nitro-2-(trifluoromethyl)-4H-chromen-4-one] | strongly inhibited; also recorded: specifically inhibits | lost activity | chemically unstable | slowly decomposed | –
2 | COc1ccc2oc(C(F)(F)F)cc(=O)c2c1[N+](=O)[O-] [Bragsin2, 6-methoxy-5-nitro-2-(trifluoromethyl)-4H-chromen-4-one] | – | – | resistant to hydration and stable | remained stable | more efficiently; also recorded: stronger
